Literature values, collected in patent US20040142333A1, “Novel secreted proteins and their uses” (priority 2000, published 2004).
Where a SMILES comes first, the peptide text is derived from it. [ ]: non-standard residue; d: D form. The star is where a group is joined. 4Abz = Nc1ccc(C(=O)O)cc1; NHOH = ON*

Tests used:
[1] = target: MMP-9 (Homo sapiens, UniProt P14780); details: read-out: IC50 against MMP-9
[2] = target: MMP-8 (Homo sapiens, UniProt P22894); details: read-out: IC50 against MMP-8
[3] = target: T1, MMP-1 (Homo sapiens, UniProt P03956); details: read-out: IC50 against MMP-1
T1 sequence (P03956 100-469): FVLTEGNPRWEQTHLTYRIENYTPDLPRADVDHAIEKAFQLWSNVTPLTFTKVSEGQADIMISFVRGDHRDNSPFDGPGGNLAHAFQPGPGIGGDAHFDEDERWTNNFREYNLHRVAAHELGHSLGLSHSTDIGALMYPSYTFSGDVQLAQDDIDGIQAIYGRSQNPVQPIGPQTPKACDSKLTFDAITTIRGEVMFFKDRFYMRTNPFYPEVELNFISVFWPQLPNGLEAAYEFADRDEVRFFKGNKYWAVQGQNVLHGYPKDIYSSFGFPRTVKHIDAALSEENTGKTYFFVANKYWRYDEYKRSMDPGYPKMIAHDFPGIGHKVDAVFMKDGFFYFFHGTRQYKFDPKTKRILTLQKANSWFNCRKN

[4] = target: MMP-3 (Homo sapiens, UniProt P08254); details: read-out: IC50 against MMP-3
MMP-3, sequence (P08254 100-477, species assumed): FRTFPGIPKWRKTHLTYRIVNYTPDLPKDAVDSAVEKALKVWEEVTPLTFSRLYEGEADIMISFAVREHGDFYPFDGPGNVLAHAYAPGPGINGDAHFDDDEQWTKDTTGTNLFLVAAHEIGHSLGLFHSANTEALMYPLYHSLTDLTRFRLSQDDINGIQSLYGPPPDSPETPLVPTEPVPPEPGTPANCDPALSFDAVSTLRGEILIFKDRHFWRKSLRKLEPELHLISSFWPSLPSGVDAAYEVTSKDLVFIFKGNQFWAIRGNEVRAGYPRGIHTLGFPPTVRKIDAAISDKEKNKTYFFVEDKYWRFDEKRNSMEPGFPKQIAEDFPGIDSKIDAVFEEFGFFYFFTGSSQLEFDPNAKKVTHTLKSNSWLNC

[5] = system: human metastatic melanoma (M24 cells)
[6] = system: M24 cells; details: murine metastasis model

MMP-8, sequence (P22894 101-467, species assumed): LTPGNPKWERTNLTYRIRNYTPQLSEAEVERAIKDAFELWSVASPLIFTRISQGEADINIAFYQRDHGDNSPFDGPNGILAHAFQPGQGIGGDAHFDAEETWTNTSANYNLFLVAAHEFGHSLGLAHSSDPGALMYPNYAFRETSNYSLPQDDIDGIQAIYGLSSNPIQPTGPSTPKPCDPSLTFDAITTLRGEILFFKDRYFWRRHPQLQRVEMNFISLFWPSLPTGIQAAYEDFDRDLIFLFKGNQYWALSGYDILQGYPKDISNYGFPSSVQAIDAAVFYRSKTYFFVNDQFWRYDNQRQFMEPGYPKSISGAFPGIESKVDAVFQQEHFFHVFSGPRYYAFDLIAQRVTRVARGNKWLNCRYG
MMP-9, sequence (P14780 94-707, species assumed): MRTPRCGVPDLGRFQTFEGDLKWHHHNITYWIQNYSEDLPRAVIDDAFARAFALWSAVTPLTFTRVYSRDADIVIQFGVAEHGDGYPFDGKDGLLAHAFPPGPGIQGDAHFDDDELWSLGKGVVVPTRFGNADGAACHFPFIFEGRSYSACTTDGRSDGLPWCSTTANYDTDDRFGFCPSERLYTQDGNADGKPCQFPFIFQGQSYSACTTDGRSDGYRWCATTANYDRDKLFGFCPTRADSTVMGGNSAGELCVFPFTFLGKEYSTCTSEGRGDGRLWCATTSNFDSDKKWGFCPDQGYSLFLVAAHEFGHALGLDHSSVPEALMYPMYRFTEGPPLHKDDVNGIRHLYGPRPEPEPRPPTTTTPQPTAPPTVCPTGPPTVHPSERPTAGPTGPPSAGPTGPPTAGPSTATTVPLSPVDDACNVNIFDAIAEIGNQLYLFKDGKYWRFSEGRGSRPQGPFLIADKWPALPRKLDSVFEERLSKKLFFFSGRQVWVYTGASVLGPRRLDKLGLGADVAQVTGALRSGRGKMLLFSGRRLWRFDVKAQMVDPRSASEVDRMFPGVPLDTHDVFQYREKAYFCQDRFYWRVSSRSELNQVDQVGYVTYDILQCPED

IC50 [1] [µM] | IC50 [2] [µM] | IC50 [3] [µM] | IC50 [4] [µM] | Compound | cell adhesion to type I collagen, vitronectin, and fibronectin [5] | lung colonization of M24 cells [6]
30 | 1 | 1 | 150 | CC(C)C[C@@H](NC(=O)[C@@H]1CCCN1C(=O)CNC(=O)c1ccc(N)cc1)C(=O)N[C@H](C)C(=O)NO [MMP inhibitor I] (H-[4Abz]GP[dL][dA]-{NHOH}) | – | –
– | – | – | – | contortrostatin | inhibit | inhibits lung colonization
